How the values were obtained:
[1] = system: HIF1α-inducible promoter activity; assay: luciferase-based hypoxia-inducible promoter activity assay, MDA-MB-231-HRE-Luc cell line; conditions: MDA-MB-231-HRE-Luc cells, various concentrations
Experimental: Results from the luciferase-based promoter activity assay with MDA-MB-231-HRE-Luc cell line treated with OOP 1 at various concentration. Hypoxia was mimicked by O2 deprivation in a GasPak™ EZ Anaerobe Pouch System (BD). Error bars represent ±s.e.m. of experiments performed in triplicates. * P<0.05, ** P<0.01, t-test, relative to sample Vehicle Hypoxia.
An analysis of hypoxia-inducible promoter activity was performed using luciferase assays in a MDA-MB-231 cell line stably transfected with hRE-hCMV-Luc plasmid. Cell lines were treated with OOP compounds at various concentrations. Hypoxia was mimicked by O2 deprivation in a GasPak™ EZ Anaerobe Pouch System (BD). Error bars represent ±s.e.m. of experiments performed in triplicates.

[2] = MTT cytotoxicity assay in MCF7 cells; format: cell-based; conditions: human, MCF7 breast cancer cells, 1 μM to 60 μM
Experimental: One potential issue that arises with the use of transcriptional inhibitors is their cytotoxicity. Therefore, careful assessment of the cytotoxicity is important to evaluate nonspecific, global effects on transcriptional machinery. Cytotoxicity experiments were performed in order to obtain the EC50 values of OOPS in an MCF7 breast cancer cell line.
The cells were treated with different concentrations of compound for 48 hours in serum free F-12K medium. The cells are plated into 96-well dishes (Greiner) at a density of 5,000-10,000 cells/well in 200 μl of the cell culture media prepared as recommended by the vendor (ATCC). The plates are then placed into the incubator (37° C., 5% CO2) until the desired confluence is reached (in ca. 24-72 hours). Next, the media in all wells is replaced with the solution of the OOPS compound (150 μl for 48 hour study, 200 μl for 72 hour study) in the appropriate cell culture medium. The plates are then incubated for 48 hours (37° C., 5% CO2). […] The resulting purple precipitate is then dissolved in DMSO (200 μl/well) and the absorption of the metabolite product (purple formazan) in each well is measured at 562 nm using microplate reader (BioTek Synergy II). The absorption values are plotted against the concentration of the compound and GI50 is determined.

MCF7 cells = assay: gene expression profiling with Affymetrix Human Gene ST 1.0 Arrays; format: cell-based; conditions: 10 μM, hypoxia (GasPak EZ pouch), |fold-change|>2.0, P<0.005, set of 3328 transcripts
Experimental: (A) Agglomerative hierarchical clustering of expression changes of the 3328 transcripts induced or repressed 2-fold or more (one-way ANOVA, P<0.005) under hypoxia mimicked with GasPak EZ pouch and the four specified conditions: -, no treatment; 1, OOP 1 (10 iuM); 2, OOP 2 (10 μM), 4, OOP 4 (10 μM). Clustering was based on a Pearson centered correlation of intensity ratios for each treatment compared to hypoxic cells (controls) using average-linkage as a distance. Of this hypoxia-induced set, 148 were induced and 449 were inhibited by OOP 1, whereas 217 were induced and 371 inhibited by OOP 2 (|fold-change|>2.0, P<0.005). Treatment with control OOP 4 induced 91 and inhibited 82 transcripts (|fold-change|>2.0, P<0.005). (B) Clustering of expression changes of the 571 transcripts induced or repressed 4-fold or more (P<0.005) by hypoxia mimicked with GasPak EZ pouch under the designated treatment conditions. Clustering parameters were the same as in (A). All reported treatments are error-weighted averages from three experiments. […] Numbers inside the intersections represent hypoxia-induced transcripts affected by the treatments.
Target proteins p300 and CBP are pleiotropic multidomain coactivators, and their CH1 regions contain binding sites for multiple transcription factors. To determine nonspecific genome-wide effects of OOPS, in vitro gene expression profiling experiments were conducted with OOPS using Affymetrix Human Gene ST 1.0 Arrays containing oligonucleotide sequences representing 28,869 transcripts. In order to interrogate cellular genome for global effects, MCF7 cells were treated with OOPS.

c-Met gene = assay: qRT-PCR of hypoxia-induced c-Met transcription in A549 cells; format: cell-based; conditions: hypoxia (GasPak EZ Anaerobe Pouch), real-time qRT-PCR
Experimental: (§1) Hypoxia was mimicked by O2 deprivation in a GasPak™ EZ Anaerobe Pouch System (BD). […] Error bars are ±s.e.m. of four independent experiments. *** P<0.001, t-test.
(§2) A549 cells, a non-small cell lung adenocarcinoma cell line, were used. It has been reported that A549 cell line produces robust upregulation of key HIF-inducible genes under hypoxia conditions. […] A549 cells were maintained in 2% serum followed by treating cells with compound or control in the media with 0.2% serum for 48 h.
(§3) mRNA levels of three HIF-1α inducible genes: VEGF, c-Met and […] in A549 cells after treatment with OOPS were measured. Data from qRT-PCR experiments showing mRNA levels of three HIF-1α inducible genes, VEGF, c-Met and LOX in A549 after treatment of the cells in a medium with OOPS is described in FIGS. 1-3. Hypoxia was mimicked by O2 deprivation in a GasPak™ EZ Anaerobe Pouch System (BD). Error bars are ±s.e.m for the experiments performed in quadruplicate. Error bars are ±s.e.m. of experiments performed in triplicate. *** P<0.001, ** P<0.01, t test.

[3] = maximum tolerated dose (MTD) study; format: in vivo; conditions: Balb/C mice, intraperitoneal injection every 48 hours, up to 100 mg/kg
Experimental: Balb/C mice were used in an MTD experiment. 1 mouse was present in the vehicle group and 3 mice in OOP 2-treated group. Food and water ad libitum was provided as needed and according to the protocol. OOP 2 was administered by Intraperitoneal (IP) injection. OOP 2 was dissolved in sterile PBS at a concentration range between […]. Volume administered was about 100-150 μl every 48 hours. No toxicity was seen even at 100 mg/kg of OOP 2, at which point the experiment was terminated.

VEGFA gene = assay: qRT-PCR of hypoxia-induced VEGFA transcription in A549 cells; format: cell-based; conditions: hypoxia (GasPak EZ Anaerobe Pouch), real-time qRT-PCR
Experimental: as §1, §2, §3

HIF-1α = assay: Western blot of intracellular HIF-1α levels in A549 cells; format: cell-based; conditions: A549 whole cell extract, 24 h incubation, hypoxia for last 18 h
Experimental: Western blot analysis of HIF-1α levels (A) with β-actin used as a control (B) in the whole cell extract of A549 cells. Cells were incubated for a total of 24 hours with OOP 2. After 6 h, hypoxia was mimicked by O2 deprivation in a GasPak™ EZ Anaerobe Pouch System (BD) for an additional 18 h.
(§4) The effect of OOPS on HIF-1α and c-met protein levels was studied. A549 cells were treated with OOPS. Cells were incubated for a total of 24 hours with OOP 2. After 6 h, hypoxia was mimicked by O2 deprivation in a GasPak™ EZ Anaerobe Pouch System (BD) for an additional 18 hours.

c-Met = assay: Western blot of intracellular c-Met levels in A549 cells; format: cell-based; conditions: A549 whole cell extract, 24 h incubation, hypoxia for last 18 h
Experimental: Western blot analysis of c-Met levels (A) with β-actin used as a control (B) in the whole cell extract of A549 cells. Cells were incubated for a total of 24 hours with OOP 2. After 6 h, hypoxia was mimicked by O2 deprivation in a GasPak™ EZ Anaerobe Pouch System (BD) for an additional 18 h.
as §4

LOX gene = assay: qRT-PCR of hypoxia-induced LOX transcription in A549 cells; format: cell-based; conditions: hypoxia (GasPak EZ Anaerobe Pouch), real-time qRT-PCR
Experimental: as §1, §2, §3

Compound | HIF1α-inducible promoter activity (luciferase) [1] | EC50 at 48 h [2] [µM] | number of transcripts induced, of the hypoxia-induced set (MCF7 cells) | number of transcripts inhibited, of the hypoxia-induced set (MCF7 cells) | expression levels of c-Met gene (mRNA) (c-Met gene) | toxicity in MTD study [3] | expression levels of VEGFA gene (mRNA) (VEGFA gene) | intracellular levels of HIF-1α (Western blot) (HIF-1α) | intracellular levels of c-Met (Western blot) (c-Met) | expression levels of LOX gene (mRNA) (LOX gene)
CC(C)C[C@@H]1NCCN([C@@H](CC(C)C)C(=O)N2CCN([C@@H](C)C(N)=O)C(=O)[C@@H]2C)C1=O [OOP 1] | reduces HIF1α-inducible promoter activity in vitro in a dose-dependent manner | 30 | 148 | 449 |  |  |  |  |  | 
CC(C)C[C@@H]1NCCN([C@@H](CC(C)C)C(=O)N2CCN([C@@H](CCC(N)=O)C(N)=O)C(=O)[C@@H]2C)C1=O [OOP 2] | reduces HIF1α-inducible promoter activity in vitro in a dose-dependent manner | 30 | 217 | 371 | reduced expression levels of c-Met gene | No toxicity | reduced expression levels of VEGFA gene | does not decrease the intracellular levels of HIF-1α | decreases intracellular levels of c-Met | reduced expression levels of LOX gene
C[C@@H]1NCCN([C@@H](C)C(=O)N2CCN([C@@H](C)C(N)=O)C(=O)[C@@H]2C)C1=O [OOP 4] | does not affect HIF1α-inducible promoter activity |  | 91 | 82 | no inhibitory activity |  | no inhibitory activity |  |  | no inhibitory activity
CC(C)C[C@H](N)C(=O)N1CCN([C@@H](C)C(=O)N2CCN([C@@H](C)C(N)=O)C(=O)[C@@H]2CC(C)C)C(=O)[C@@H]1CCCNC(=N)N [OOP 3] | reduces HIF1α-inducible promoter activity in vitro in a dose-dependent manner |  |  |  |  |  |  |  |  | 

Source: patent publication US9669038B1, “Heterocyclic compounds and uses thereof” (Globavir BioSciences, Inc., priority 2012, dated 2017)
